From US20240124460A1, “METHODS AND COMPOSITIONS FOR TARGETED PROTEIN DEGRADATION” (Ranok Therapeutics (Hangzhou) Co. Ltd., priority 2020, published 2024) come the findings set out here.

What is called IC50 is the concentration needed to halve the response being measured.

Test [1] concerns MV-4-11 human acute myeloid leukemia. Nature of the test: MV-4-11 CCK-8 proliferation assay. Conditions: MV-4-11 cells, 72 hr. The class given is cell-based. In short, it runs like this:
(§1)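 Inhibition is derived from CCK-8 absorbance of compound-treated cells relative to DMSO-treated cells, after subtracting a cell-free medium/DMSO background. Test concentrations span 20 μM down to 1.02 nM in 3-fold steps, and lines are cultured as ATCC recommends.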
For orientation: Tetrazolium assays rely on reduction of a dye to a coloured formazan, in cell work by metabolically active cells.

In test [2] the test system is U-87 MG human glioblastoma. Kind of test: U87 MG CCK-8 proliferation assay. It is filed as cell-based. Conditions: U-87 MG cells, read-out: U87MG CCK-8. In a few lines: as §1
A further test deals with ERBB2. Nature of the test: ERBB2 (HER2) flow cytometry protein degradation assay in BT-474 cells. Conditions: DC50, BT-474 cells, 24 hr. The class given is cell-based, human. As for the experimental part:
To analyze total ERBB2 expression by flow cytometry, cells were detached with trypsin, washed, counted and treated with 10 μl/10^6 cells PE-conjugated, anti-ERBB2 monoclonal antibody (R&D Systems, #FAB1129P) for 30 min at 25° C. in dark. Cells were then washed, resuspended in 200 μl 1% paraformaldehyde and analyzed by flow cytometry.
% Inhibition=100−(D−B)/(S−B)*100%. • S: Fluorescence intensity of cells with antibody • D: Fluorescence intensity of compound-treated cells with antibody • B: Fluorescence intensity of cells without antibody
A general note: A flow cytometer gives signals particle by particle.

The target in another test is T1, HSP90α protein (Homo sapiens, UniProt P07900).
T1 construct: purchased BPS Bioscience #50298
Kind of test: HSP90α-binding FP (BODIPY) assay. Particulars: FP competition with BODIPY-labeled RNK04010. In a few lines: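 Fluorescence polarization measured competition with N-terminal human HSP90α, using either FITC-geldanamycin or BODIPY-labelled triazolone RNK04010 as tracer (5 nM final each). Compounds were tested in 2.5-fold dilutions from 20 μM to 5.2 nM, with incubation at 25 °C for 120 min (FITC) or 300 min (BODIPY).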

Like-named read-outs stand apart in the source and are kept apart here. A value given as a limit tells only on which side of the number the result lay.

In the case of `CCCc1cc(-c2nnc(O)n2-c2ccc(CNC(=O)C3CCN(c4ccc(Nc5ncc6c(n5)N(C)c5ccccc5C(=O)N6C)c(OCC)c4)CC3)cc2)c(O)cc1O` [Compound 039, N-(4-(3-(2,4-dihydroxy-5-propylphenyl)-5-hydroxy-4H-1,2,4-triazol-4-yl)benzyl)-1-(4-((5,11-dimethyl-6-oxo-6,11-dihydro-5H-benzo[e]pyrimido[5,4-b][1,4]diazepin-2-yl)amino)-3-ethoxyphenyl)piperidine-4-carboxamide], the EC50 in test [1] and in test [2] (72 hr) was 100 to 1000 nM in each case. In the test on ERBB2, the ERBB2 degradation entry is given as “B (DC50 = 100-1000 nM)”.

Regarding `CCOc1cc(N2CCC(C(=O)NCc3ccc(CN4CCC(Cc5ccc(-n6c(C(=O)NC(C)C)nnc6-c6cc(C(C)C)c(O)cc6O)cc5)CC4)cc3)CC2)ccc1Nc1ncc2c(n1)N(C)c1ccccc1C(=O)N2C` [Compound 056, N-(4-((4-(4-(3-(2,4-dihydroxy-5-isopropylphenyl)-5-(isopropylcarbamoyl)-4H-1,2,4-triazol-4-yl)benzyl)piperidin-1-yl)methyl)benzyl)-1-(4-((5,11-dimethyl-6-oxo-6,11-dihydro-5H-benzo[e]pyrimido[5,4-b][1,4]diazepin-2-yl)amino)-3-ethoxyphenyl)piperidine-4-carboxamide], the EC50 in test [1] (Homo sapiens, MV4-11) was < 100 nM; in test [2] (Homo sapiens, U-87 MG, 72 h) it was 100 to 1000 nM. For the same compound, the ERBB2 degradation entry in the test with ERBB2 is “B (DC50 = 100-1000 nM)”.

Regarding `CCCc1cc(-c2nnc(O)n2-c2ccc(CNC(=O)C3CCN(c4ccc(Nc5ncc6c(n5)N(C)c5ccccc5C(=O)N6C)c(OCC)c4)CC3)cc2)c(O)cc1O` [Compound 029, N-(4-(3-(2,4-dihydroxy-5-propylphenyl)-5-hydroxy-4H-1,2,4-triazol-4-yl)benzyl)-1-(4-((5,11-dimethyl-6-oxo-6,11-dihydro-5H-benzo[e]pyrimido[5,4-b][1,4]diazepin-2-yl)amino)-3-ethoxyphenyl)piperidine-4-carboxamide], the EC50 in test [1] (Homo sapiens, MV4-11) was 100 to 1000 nM; in test [2] (72 hr), > 1000 nM. For the same compound, the ERBB2 degradation entry with ERBB2 is given as “B (DC50 = 100-1000 nM)”.

Regarding `CCOc1cc(N2CCC(C(=O)NCc3ccc(-n4c(O)nnc4-c4cc(CC)c(O)cc4O)cc3F)CC2)ccc1Nc1ncc2c(n1)N(C)c1ccccc1C(=O)N2C` [Compound 037, 1-(4-((5,11-dimethyl-6-oxo-6,11-dihydro-5H-benzo[e]pyrimido[5,4-b][1,4]diazepin-2-yl)amino)-3-ethoxyphenyl)-N-(4-(3-(5-ethyl-2,4-dihydroxyphenyl)-5-hydroxy-4H-1,2,4-triazol-4-yl)-2-fluorobenzyl)piperidine-4-carboxamide], the EC50 in test [1] (Homo sapiens, MV4-11) was 100 to 1000 nM; in test [2] (Homo sapiens, U-87 MG, 72 h), 100 to 1000 nM. Moreover, the ERBB2 degradation result in the test with ERBB2 was “B (DC50 = 100-1000 nM)”.

Regarding `CCOc1cc(N2CCC(C(=O)N3CCC(CN4CCN(Cc5ccc(-n6c(C(N)=O)nnc6-c6cc(CC)c(O)cc6O)cc5)CC4)CC3)CC2)ccc1Nc1ncc2c(n1)N(S(C)(=O)=O)c1ccccc1C(=O)N2C` [Compound 063, 4-(4-((4-((1-(1-(3-ethoxy-4-((5-methyl-11-(methylsulfonyl)-6-oxo-6,11-dihydro-5H-benzo[e]pyrimido[5,4-b][1,4]diazepin-2-yl)amino)phenyl)piperidine-4-carbonyl)piperidin-4-yl)methyl)piperazin-1-yl)methyl)phenyl)-5-(5-ethyl-2,4-dihydroxyphenyl)-4H-1,2,4-triazole-3-carboxamide], the EC50 was < 100 nM in test [1] (Homo sapiens, MV4-11) and < 100 nM in test [2] (Homo sapiens, U-87 MG, 72 h). Further, the IC50 on HSP90α protein was < 100 nM.

For the compound `CCOc1cc(N2CCC(C(=O)N3CCN(Cc4ccc(-n5c(O)nnc5-c5cc(C)c(O)cc5O)cc4)CC3)CC2)ccc1Nc1ncc2c(n1)N(S(C)(=O)=O)c1ccccc1C(=O)N2C` [Compound 085, 2-((4-(4-(4-(4-(3-(2,4-dihydroxy-5-methylphenyl)-5-hydroxy-4H-1,2,4-triazol-4-yl)benzyl)piperazine-1-carbonyl)piperidin-1-yl)-2-ethoxyphenyl)amino)-5-methyl-11-(methylsulfonyl)-5,11-dihydro-6H-benzo[e]pyrimido[5,4-b][1,4]diazepin-6-one], the EC50 is < 100 nM in test [1] (Homo sapiens, MV4-11) and 100 to 1000 nM in test [2] (Homo sapiens, U-87 MG, 72 h). On HSP90α protein, this compound returned an IC50 of 100 to 1000 nM.

On to `CCOc1cc(N2CCC(C(=O)N3CCN(C(=O)O[C@H]4CC[C@H](Nc5cc(-n6nc(C(F)(F)F)c7c6CC(C)(C)CC7=O)ccc5C(N)=O)CC4)CC3)CC2)ccc1Nc1ncc2c(n1)N(S(C)(=O)=O)c1ccccc1C(=O)N2C` [Compound 106, (1R,4R)-4-((2-carbamoyl-5-(6,6-dimethyl-4-oxo-3-(trifluoromethyl)-4,5,6,7-tetrahydro-1H-indazol-1-yl)phenyl)amino)cyclohexyl 4-(1-(3-ethoxy-4-((5-methyl-11-(methylsulfonyl)-6-oxo-6,11-dihydro-5H-benzo[e]pyrimido[5,4-b][1,4]diazepin-2-yl)amino)phenyl)piperidine-4-carbonyl)piperazine-1-carboxylate], for which the EC50 in test [1] (Homo sapiens, MV4-11) is 100 to 1000 nM; in test [2] (Homo sapiens, U-87 MG, 72 h), > 1000 nM. For the same compound, at HSP90α protein, the half-maximal inhibitory concentration (IC50) was > 1000 nM.

Take `CCOc1cc(N2CCC(C(=O)NCC3CCN(C(=O)C4CCN(Cc5ccc(-n6c(O)nnc6-c6cc(CC)c(O)cc6O)cc5)CC4)CC3)CC2)ccc1Nc1ncc2c(n1)N(S(C)(=O)=O)c1ccccc1C(=O)N2C` [Compound 079, 1-(3-ethoxy-4-((5-methyl-11-(methylsulfonyl)-6-oxo-6,11-dihydro-5H-benzo[e]pyrimido[5,4-b][1,4]diazepin-2-yl)amino)phenyl)-N-((1-(1-(4-(3-(5-ethyl-2,4-dihydroxyphenyl)-5-hydroxy-4H-1,2,4-triazol-4-yl)benzyl)piperidine-4-carbonyl)piperidin-4-yl)methyl)piperidine-4-carboxamide]: the EC50 in test [1] (Homo sapiens, MV4-11) is 100 to 1000 nM; in test [2] (Homo sapiens, U-87 MG, 72 h) it was > 1000 nM. For the same compound, the half-maximal inhibitory concentration (IC50) on HSP90α protein is < 100 nM.

As for `CCCc1cc(-c2nnc(O)n2-c2ccc(CN3CCN(C(=O)C4CCN(c5ccc(Nc6ncc7c(n6)N(S(C)(=O)=O)c6ccccc6C(=O)N7C)c(OCC)c5)CC4)CC3)cc2)c(O)cc1O` [Compound 087, 2-((4-(4-(4-(4-(3-(2,4-dihydroxy-5-propylphenyl)-5-hydroxy-4H-1,2,4-triazol-4-yl)benzyl)piperazine-1-carbonyl)piperidin-1-yl)-2-ethoxyphenyl)amino)-5-methyl-11-(methylsulfonyl)-5,11-dihydro-6H-benzo[e]pyrimido[5,4-b][1,4]diazepin-6-one], the EC50 was < 100 nM in test [1] (Homo sapiens, MV4-11) and 100 to 1000 nM in test [2] (Homo sapiens, U-87 MG, 72 h). This compound also returned an IC50 at HSP90α protein of 100 to 1000 nM.

Consider `CCOc1cc(N2CCC(C(=O)N3CCC(CN4CCN(Cc5ccc(-n6c(O)nnc6-c6cc(CC)c(O)cc6O)cc5F)CC4)CC3)CC2)ccc1Nc1ncc2c(n1)N(S(C)(=O)=O)c1ccccc1C(=O)N2C` [Compound 082, 2-((2-ethoxy-4-(4-(4-((4-(4-(3-(5-ethyl-2,4-dihydroxyphenyl)-5-hydroxy-4H-1,2,4-triazol-4-yl)-2-fluorobenzyl)piperazin-1-yl)methyl)piperidine-1-carbonyl)piperidin-1-yl)phenyl)amino)-5-methyl-11-(methylsulfonyl)-5,11-dihydro-6H-benzo[e]pyrimido[5,4-b][1,4]diazepin-6-one], for which the EC50 is < 100 nM in test [1] (Homo sapiens, MV4-11) and < 100 nM in test [2] (Homo sapiens, U-87 MG, 72 h). Also, the IC50 at HSP90α protein is < 100 nM.

With `CCOc1cc(N2CCC(C(=O)NCc3ccc(-n4c(O)nnc4-c4cc(CC)c(O)cc4O)cc3)CC2)ccc1Nc1ncc2c(n1)N(S(C)(=O)=O)c1ccccc1C(=O)N2C` [Compound 071, 1-(3-ethoxy-4-((5-methyl-11-(methylsulfonyl)-6-oxo-6,11-dihydro-5H-benzo[e]pyrimido[5,4-b][1,4]diazepin-2-yl)amino)phenyl)-N-(4-(3-(5-ethyl-2,4-dihydroxyphenyl)-5-hydroxy-4H-1,2,4-triazol-4-yl)benzyl)piperidine-4-carboxamide], the EC50 in test [1] (Homo sapiens, MV4-11) is 100 to 1000 nM; in test [2] (Homo sapiens, U-87 MG, 72 h), > 1000 nM. The compound also had an IC50 on HSP90α protein of 100 to 1000 nM.

In the case of `CCOc1cc(N2CCC(C(=O)N[C@H](C)c3ccc(CN4CCC(Cc5ccc(-n6c(O)nnc6-c6cc(C(C)C)c(O)cc6O)cc5)CC4)cc3)CC2)ccc1Nc1ncc2c(n1)N(C)c1ccccc1C(=O)N2C` [Compound 045, (R)—N-(1-(4-((4-(4-(3-(2,4-dihydroxy-5-isopropylphenyl)-5-hydroxy-4H-1,2,4-triazol-4-yl)benzyl)piperidin-1-yl)methyl)phenyl)ethyl)-1-(4-((5,11-dimethyl-6-oxo-6,11-dihydro-5H-benzo[e]pyrimido[5,4-b][1,4]diazepin-2-yl)amino)-3-ethoxyphenyl)piperidine-4-carboxamide], the EC50 was < 100 nM in test [1] (Homo sapiens, MV4-11) and 100 to 1000 nM in test [2] (Homo sapiens, U-87 MG, 72 h). On HSP90α protein, this compound yielded a concentration for half-maximal inhibition (IC50) of 100 to 1000 nM.

In the case of “(1R,4R)-4-((2-carbamoyl-5-(6,6-dimethyl-4-oxo-3-(trifluoromethyl)-4,5,6,7-tetrahydro-1H-indazol-1-yl)phenyl)amino)cyclohexyl 4-(1-(4-((5,11-dimethyl-6-oxo-6,11-dihydro-5H-benzo[e]pyrimido[5,4-b][1,4]diazepin-2-yl)amino)-3-ethoxyphenyl)piperidine-4-carbonyl)piperazine-1-carboxylate [Compound 104]”, the EC50 in test [1] and in test [2] (72 hr) was > 1000 nM throughout. Besides, on HSP90α protein, the IC50 is > 1000 nM.
